Assay results reported in article PMC10794885 (RSC Advances, 2024).

Experiment: Stability in simulated intestinal fluid
Assay type: physicochemical

- half-life: 478 min
Compound: CC[C@H]1OC(=O)[C@H](C)[C@@H](O[C@H]2C[C@@](C)(OC)[C@@H](O)[C@H](C)O2)[C@H](C)[C@@H](O[C@@H]2O[C@H](C)C[C@H](N(C)C)[C@H]2O)[C@](C)(O)C[C@@H](C)C(=O)[C@H](C)[C@@H](O)[C@]1(C)O [erythromycin]
